IC50 data for 22 compounds are collected here from patent US12157746B2, “Tetrahydro-1H-pyrazino[2,1-a]isoindolylquinoline compounds for the treatment of autoimmune disease” (F. HOFFMANN-LA ROCHE AG, priority 2018, dated 2024).

The structures appear in SMILES notation.

This assay addresses T1, human TLR8 (Homo sapiens, UniProt Q9NR97).
T1 sequence (Q9NR97 27-1041): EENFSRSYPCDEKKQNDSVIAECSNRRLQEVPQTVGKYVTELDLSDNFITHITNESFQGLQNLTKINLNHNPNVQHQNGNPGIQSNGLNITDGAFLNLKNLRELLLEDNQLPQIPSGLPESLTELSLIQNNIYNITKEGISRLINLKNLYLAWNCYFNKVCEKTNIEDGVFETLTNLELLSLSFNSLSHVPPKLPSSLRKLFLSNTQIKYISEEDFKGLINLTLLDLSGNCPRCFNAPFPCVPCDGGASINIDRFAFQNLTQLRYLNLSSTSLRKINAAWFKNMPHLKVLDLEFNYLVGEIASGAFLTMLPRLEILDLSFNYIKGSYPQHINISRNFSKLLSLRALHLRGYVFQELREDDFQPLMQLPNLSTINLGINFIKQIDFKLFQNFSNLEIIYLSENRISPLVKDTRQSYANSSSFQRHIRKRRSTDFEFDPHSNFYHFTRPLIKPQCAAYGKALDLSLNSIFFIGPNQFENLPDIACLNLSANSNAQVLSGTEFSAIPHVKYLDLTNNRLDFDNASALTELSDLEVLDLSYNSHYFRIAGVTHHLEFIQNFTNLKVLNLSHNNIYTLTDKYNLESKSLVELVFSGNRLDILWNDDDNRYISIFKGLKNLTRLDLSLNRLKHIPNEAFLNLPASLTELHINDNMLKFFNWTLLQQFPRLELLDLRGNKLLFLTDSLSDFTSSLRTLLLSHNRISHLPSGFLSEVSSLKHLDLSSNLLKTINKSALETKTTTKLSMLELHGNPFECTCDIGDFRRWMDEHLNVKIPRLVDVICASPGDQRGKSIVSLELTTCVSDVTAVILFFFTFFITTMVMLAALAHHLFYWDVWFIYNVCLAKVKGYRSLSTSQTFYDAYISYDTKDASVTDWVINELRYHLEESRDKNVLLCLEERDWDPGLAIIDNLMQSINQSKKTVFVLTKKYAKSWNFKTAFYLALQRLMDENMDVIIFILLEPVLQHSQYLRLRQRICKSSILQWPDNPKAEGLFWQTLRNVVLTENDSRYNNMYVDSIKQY
As to the kind of experiment: HEK293-Blue-hTLR-8 cells assay. To be noted: HEK293-Blue-hTLR8 cells, R848 stimulation, 20 hrs, SEAP reporter; read-out: HEK/hTLR8 IC50. It is filed as cell-based. The essentials: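 Antagonism read out in HEK293-Blue-hTLR8 cells carrying an NF-κB/AP-1-driven SEAP reporter, stimulated with R848 (10 μL of 60 uM stock added) alongside serially diluted compound (1% DMSO), 20 h at 37° C. Supernatant SEAP measured with QUANTI-Blue after 2 h at 37° C, absorbance at 620-655 nm.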
Take `C[C@@H]1CN(c2ccc(C#N)c3ncccc23)C[C@@H]2c3ccc(NCCN4CC[C@H](O)C4)cc3CN12` [Example 68, 5-[(4R,10bS)-8-[2-[(3S)-3-hydroxypyrrolidin-1-yl]ethylamino]-4-methyl-3,4,6,10b-tetrahydro-1H-pyrazino[2,1-a]isoindol-2-yl]quinoline-8-carbonitrile]: the IC50 was below 3.2 nM.
Under `C[C@@H]1CN(c2ccc(C#N)c3ncccc23)C[C@@H]2c3ccc(N4C[C@H]5CNCCN5C4=O)cc3CN12` [Example 72, 5-[(4R,10bS)-8-[(8aR)-3-oxo-1,5,6,7,8,8a-hexahydroimidazo[1,5-a]pyrazin-2-yl]-4-methyl-3,4,6,10b-tetrahydro-1H-pyrazino[2,1-a]isoindol-2-yl]quinoline-8-carbonitrile] stands below 3.2 nM; under `C[C@@H]1CN(c2ccc(C#N)c3ncccc23)C[C@@H]2c3ccc(N[C@H]4CNCCOC4)cc3CN12` [Example 56B, 5-[(4R,10bS)-4-methyl-8-[[(6S)-1,4-oxazepan-6-yl]amino]-3,4,6,10b-tetrahydro-1H-pyrazino[2,1-a]isoindol-2-yl]quinoline-8-carbonitrile], below 3.2 nM.
On to `C[C@@H]1CN(c2ccc(C#N)c3ncsc23)C[C@@H]2c3ccc(N[C@H]4CNC[C@H]4F)cc3CN12` [Example 78, 7-[(4R,10bS)-8-[[(3S,4R)-4-fluoropyrrolidin-3-yl]amino]-4-methyl-3,4,6,10b-tetrahydro-1H-pyrazino[2,1-a]isoindol-2-yl]-1,3-benzothiazole-4-carbonitrile], for which the IC50 stood at 0.4 nM.
To `C[C@@H]1CN(c2ccc(C#N)c3ncccc23)C[C@@H]2c3ccc(OC[C@@H]4C[C@H](F)CN4)cc3CN12` [Example 74, 5-[(4R,10bS)-8-[[(2S,4S)-4-fluoropyrrolidin-2-yl]methoxy]-4-methyl-3,4,6,10b-tetrahydro-1H-pyrazino[2,1-a]isoindol-2-yl]quinoline-8-carbonitrile] belongs below 0.3 nM.
Regarding `C[C@@H]1CN(c2ccc(C#N)c3ncccc23)C[C@@H]2c3ccc(C(=O)N4CCC(C)(N)CC4)cc3CN12` [Example 88, 5-[(4R,10bS)-8-(4-amino-4-methyl-piperidine-1-carbonyl)-4-methyl-3,4,6,10b-tetrahydro-1H-pyrazino[2,1-a]isoindol-2-yl]quinoline-8-carbonitrile], the IC50 came to 0.7 nM.
In the case of `C[C@@H]1CN(c2ccc(C#N)c3ncccc23)C[C@@H]2c3ccc(NCC4COCCN4)cc3CN12` (stereo partly drawn) [Example 57, 5-[(4R,10bS)-4-methyl-8-(morpholin-3-ylmethylamino)-3,4,6,10b-tetrahydro-1H-pyrazino[2,1-a]isoindol-2-yl]quinoline-8-carbonitrile], the IC50 was below 3.2 nM.
On to `C[C@@H]1CN(c2ccc(C#N)c3ncccc23)C[C@@H]2c3ccc(NC[C@H]4CNCCO4)cc3CN12` [Example 59, 5-[(4R,10bS)-4-methyl-8-[[(2R)-morpholin-2-yl]methylamino]-3,4,6,10b-tetrahydro-1H-pyrazino[2,1-a]isoindol-2-yl]quinoline-8-carbonitrile], for which the IC50 is below 3.2 nM.
To `C[C@@H]1CN(c2ccc(C(F)(F)F)c3nccnc23)C[C@@H]2c3ccc(N[C@H]4CNC[C@H]4F)cc3CN12` [Example 77, (4R,10bS)—N-[(3S,4R)-4-fluoropyrrolidin-3-yl]-4-methyl-2-[8-(trifluoromethyl)quinoxalin-5-yl]-3,4,6,10b-tetrahydro-1H-pyrazino[2,1-a]isoindol-8-amine] belongs below 3.2 nM; to `CO[C@H]1CNC[C@@H]1N(C)c1ccc2c(c1)CN1[C@H](C)CN(c3ccc(C#N)c4ncccc34)C[C@H]21` [Example 64, 5-[(4R,10bS)-8-[[(3S,4S)-4-methoxypyrrolidin-3-yl]-methyl-amino]-4-methyl-3,4,6,10b-tetrahydro-1H-pyrazino[2,1-a]isoindol-2-yl]quinoline-8-carbonitrile], below 3.2 nM.
Take `CO[C@H]1CNC[C@H]1Nc1ccc2c(c1)CN1[C@H](C)CN(c3ccc(C#N)c4ncccc34)C[C@H]21` [Example 61, 5-[(4R,10bS)-8-[[(3R,4S)-4-methoxypyrrolidin-3-yl]amino]-4-methyl-3,4,6,10b-tetrahydro-1H-pyrazino[2,1-a]isoindol-2-yl]quinoline-8-carbonitrile]: the IC50 was below 3.2 nM.
Regarding `C[C@@H]1CN(c2ccc(C#N)c3ncccc23)C[C@@H]2c3ccc(NC[C@@H]4CNCCO4)cc3CN12` [Example 58, 5-[(4R,10bS)-4-methyl-8-[[(2S)-morpholin-2-yl]methylamino]-3,4,6,10b-tetrahydro-1H-pyrazino[2,1-a]isoindol-2-yl]quinoline-8-carbonitrile], the IC50 is below 3.2 nM.
To `CO[C@@H]1CNC[C@@H]1Nc1ccc2c(c1)CN1[C@H](C)CN(c3ccc(C#N)c4ncccc34)C[C@H]21` [Example 60, 5-[(4R,10bS)-8-[[(3S,4R)-4-methoxypyrrolidin-3-yl]amino]-4-methyl-3,4,6,10b-tetrahydro-1H-pyrazino[2,1-a]isoindol-2-yl]quinoline-8-carbonitrile] belongs below 3.2 nM.
To `C[C@@H]1CN(c2ccc(C#N)c3ncccc23)C[C@@H]2c3cc(F)c(N4CC5CNCC(C4)O5)cc3CN12` [Example 85, 5-[(4R,10bS)-9-fluoro-4-methyl-8-(9-oxa-3,7-diazabicyclo[3.3.1]nonan-3-yl)-3,4,6,10b-tetrahydro-1H-pyrazino[2,1-a]isoindol-2-yl]quinoline-8-carbonitrile] belongs 9.2 nM.
Under `C[C@@H]1CN(c2ccc(C#N)c3ncccc23)C[C@@H]2c3ccc(N[C@@H]4CNCCOC4)cc3CN12` [Example 56A, 5-[(4R,10bS)-4-methyl-8-[[(6R)-1,4-oxazepan-6-yl]amino]-3,4,6,10b-tetrahydro-1H-pyrazino[2,1-a]isoindol-2-yl]quinoline-8-carbonitrile] stands below 3.2 nM; under `Cc1ccc(N2C[C@@H](C)N3Cc4cc(N[C@H]5CNC[C@H]5F)ccc4[C@H]3C2)c2nccnc12` [Example 76, (4R,10bS)—N-[(3S,4R)-4-fluoropyrrolidin-3-yl]-4-methyl-2-(8-methylquinoxalin-5-yl)-3,4,6,10b-tetrahydro-1H-pyrazino[2,1-a]isoindol-8-amine], 12.7 nM; under `CO[C@H]1CNC[C@@H]1Nc1ccc2c(c1)CN1[C@H](C)CN(c3ccc(C#N)c4ncccc34)C[C@H]21` [Example 62, 5-[(4R,10bS)-8-[[(3S,4S)-4-methoxypyrrolidin-3-yl]amino]-4-methyl-3,4,6,10b-tetrahydro-1H-pyrazino[2,1-a]isoindol-2-yl]quinoline-8-carbonitrile], below 3.2 nM.
As for `CO[C@H]1CNCC[C@H]1Nc1ccc2c(c1)CN1[C@H](C)CN(c3ccc(C#N)c4ncccc34)C[C@H]21` [Example 66, 5-[(4R,10bS)-8-[[(3S,4R)-3-methoxy-4-piperidyl]amino]-4-methyl-3,4,6,10b-tetrahydro-1H-pyrazino[2,1-a]isoindol-2-yl]quinoline-8-carbonitrile], the IC50 was below 3.2 nM.
To `C[C@@H]1CN(c2ccc(C#N)c3ncccc23)C[C@@H]2c3cc(F)c(N4C[C@H](N)[C@@](C)(O)C4)cc3CN12` [Example 83, 5-[(4R,10bS)-8-[(3S,4S)-4-amino-3-hydroxy-3-methyl-pyrrolidin-1-yl]-9-fluoro-4-methyl-3,4,6,10b-tetrahydro-1H-pyrazino[2,1-a]isoindol-2-yl]quinoline-8-carbonitrile] belongs 1 nM.
Under `N#Cc1ccc(N2CCN3Cc4cc(N5CCNCC5)ccc4C3C2)c2cccnc12` (stereo not shown) [Example 3, 5-(8-piperazin-1-yl-3,4,6,10b-tetrahydro-1H-pyrazino[2,1-a]isoindol-2-yl)quinoline-8-carbonitrile] stands below 3.2 nM.
Turning to `C[C@@H]1CN(c2ccc(C#N)c3ncccc23)C[C@@H]2c3ccc(NC[C@@H]4C[C@H](F)CN4)cc3CN12` [Example 70, 5-[(4R,10bS)-8-[[(2S,4S)-4-fluoropyrrolidin-2-yl]methylamino]-4-methyl-3,4,6,10b-tetrahydro-1H-pyrazino[2,1-a]isoindol-2-yl]quinoline-8-carbonitrile], the IC50 was 0.5 nM.
With `C[C@@H]1CN(c2ccc(C#N)c3ncccc23)C[C@@H]2c3ccc(NCC4(F)CNC4)cc3CN12` [Example 69, 5-[(4R,10bS)-8-[(3-fluoroazetidin-3-yl)methylamino]-4-methyl-3,4,6,10b-tetrahydro-1H-pyrazino[2,1-a]isoindol-2-yl]quinoline-8-carbonitrile], the IC50 was below 3.2 nM.
